Laboratory results published in PubChem BioAssay (NCI).
Values joined by “and” are separate entries in the source; they are usually repeats but may differ in a detail not shown here. Equal entries are not always repeated.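 Tested at 5 concentrations; 48 h exposure; 96-well plates; endpoints linearly interpolated, else capped at highest concentration. GI50 marks 50% less growth. The concentration for full growth arrest is given as TGI.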 Where a SMILES comes first, the peptide text is derived from it. [ ]: non-standard residue; d: D form. The star is where a group is joined. Dolaproine = CO[C@@H]([C@@H]1CCCN1)[C@@H](C)C(=O)O; Dil = CC[C@H](C)[C@H](NC)[C@@H](CC(=O)O)OC; X2 = C[C@@H](N*)[C@@H](O)c1ccccc1; NMeV = CN[C@H](C(=O)O)C(C)C

Legend:
Assay in all cases: NCI tumour cell line growth inhibition, 48 h
OVCAR-3 ovarian = tested on: OVCAR-3 ovarian
MOLT-4 leukemia = tested on: MOLT-4 leukemia
SN12C renal = tested on: SN12C renal
EKVX NSCLC = tested on: EKVX NSCLC
TK-10 renal = tested on: TK-10 renal
SK-OV-3 ovarian = tested on: SK-OV-3 ovarian
A498 renal = tested on: A498 renal
HOP-92 NSCLC = tested on: HOP-92 NSCLC
HCC-2998 colon = tested on: HCC-2998 colon
M14 melanoma = tested on: M14 melanoma
OVCAR-4 ovarian = tested on: OVCAR-4 ovarian
HCT-15 colon = tested on: HCT-15 colon
MDA-MB-231 breast = tested on: MDA-MB-231 breast
CCRF-CEM leukemia = tested on: CCRF-CEM leukemia
RPMI-8226 leukemia = tested on: RPMI-8226 leukemia
SNB-75 CNS = tested on: SNB-75 CNS
SK-MEL-5 melanoma = tested on: SK-MEL-5 melanoma
IGROV1 ovarian = tested on: IGROV1 ovarian
PC-3 prostate = tested on: PC-3 prostate
SF-295 CNS = tested on: SF-295 CNS
SF-268 CNS = tested on: SF-268 CNS
HOP-62 NSCLC = tested on: HOP-62 NSCLC
SF-539 CNS = tested on: SF-539 CNS
NCI-H460 lung = tested on: NCI-H460 lung
SW-620 colon = tested on: SW-620 colon
NCI-H522 lung = tested on: NCI-H522 lung
MALME-3M melanoma = tested on: MALME-3M melanoma
OVCAR-8 ovarian = tested on: OVCAR-8 ovarian
HCT-116 colon = tested on: HCT-116 colon
HT29 colon = tested on: HT29 colon
U251 CNS = tested on: U251 CNS
OVCAR-5 ovarian = tested on: OVCAR-5 ovarian
COLO 205 colon = tested on: COLO 205 colon
KM12 colon = tested on: KM12 colon
K-562 leukemia = tested on: K-562 leukemia
SNB-19 CNS = tested on: SNB-19 CNS
MDA-MB-435 = tested on: MDA-MB-435
UACC-62 melanoma = tested on: UACC-62 melanoma
UACC-257 melanoma = tested on: UACC-257 melanoma
DU-145 prostate = tested on: DU-145 prostate
UO-31 renal = tested on: UO-31 renal
786-0 renal = tested on: 786-0 renal
NCI-H226 lung = tested on: NCI-H226 lung
A549 NSCLC = tested on: A549 NSCLC
HL-60(TB) leukemia = tested on: HL-60(TB) leukemia
ACHN renal = tested on: ACHN renal
NCI/ADR-RES ovarian = tested on: NCI/ADR-RES ovarian
HS 578T breast = tested on: HS 578T breast
NCI-H23 lung = tested on: NCI-H23 lung
CAKI-1 renal = tested on: CAKI-1 renal
SK-MEL-2 melanoma = tested on: SK-MEL-2 melanoma
BT-549 breast = tested on: BT-549 breast
MCF7 breast = tested on: MCF7 breast
LOX IMVI melanoma = tested on: LOX IMVI melanoma
SR leukemia = tested on: SR leukemia
SK-MEL-28 melanoma = tested on: SK-MEL-28 melanoma
T-47D breast = tested on: T-47D breast

Structure (SMILES): CC[C@H](C)[C@@H]([C@@H](CC(=O)N1CCC[C@H]1[C@H](OC)[C@@H](C)C(=O)N[C@H](C)[C@@H](O)c1ccccc1)OC)N(C)C(=O)[C@@H](NC(=O)[C@@H](NC)C(C)C)C(C)C (H-[NMeV]V[Dil][Dolaproine]-X2)
- GI50 (OVCAR-3 ovarian): < 0.01 µM
- TGI (OVCAR-3 ovarian): 0.651 µM
- GI50 (MOLT-4 leukemia): < 0.005 µM
- TGI (MOLT-4 leukemia): > 100 µM
- GI50 (SN12C renal): < 0.005 µM
- TGI (SN12C renal): > 100 µM
- GI50 (EKVX NSCLC): 0.00692 µM and < 0.01 µM
- TGI (EKVX NSCLC): > 100 µM
- GI50 (TK-10 renal): > 100 µM
- TGI (TK-10 renal): > 100 µM
- GI50 (SK-OV-3 ovarian): < 0.005 µM
- TGI (SK-OV-3 ovarian): > 100 µM
- GI50 (A498 renal): 0.00518 µM
- TGI (A498 renal): 0.387 µM
- TGI (HOP-92 NSCLC): > 100 µM
- GI50 (HCC-2998 colon): < 0.005 µM
- TGI (HCC-2998 colon): > 100 µM
- GI50 (M14 melanoma): < 0.005 µM
- TGI (M14 melanoma): 0.00705 µM
- TGI (OVCAR-4 ovarian): > 100 µM
- GI50 (HCT-15 colon): 0.0444 µM and 0.0233 µM
- TGI (HCT-15 colon): > 100 µM
- GI50 (MDA-MB-231 breast): < 0.005 µM
- TGI (MDA-MB-231 breast): > 13.1 µM and 1.84 µM
- GI50 (CCRF-CEM leukemia): < 0.005 µM
- TGI (CCRF-CEM leukemia): > 100 µM
- GI50 (RPMI-8226 leukemia): < 0.005 µM
- TGI (RPMI-8226 leukemia): > 100 µM
- GI50 (SNB-75 CNS): < 0.005 µM
- TGI (SNB-75 CNS): > 50 µM
- GI50 (SK-MEL-5 melanoma): < 0.005 µM
- TGI (SK-MEL-5 melanoma): 0.0505 µM and 0.0772 µM
- GI50 (IGROV1 ovarian): 0.00831 µM and < 0.01 µM
- TGI (IGROV1 ovarian): > 100 µM
- GI50 (PC-3 prostate): < 0.005 µM
- TGI (PC-3 prostate): > 100 µM
- GI50 (SF-295 CNS): < 0.005 µM
- TGI (SF-295 CNS): > 100 µM
- GI50 (SF-268 CNS): 0.00638 µM and < 0.0108 µM
- TGI (SF-268 CNS): > 100 µM
- GI50 (HOP-62 NSCLC): < 0.005 µM
- TGI (HOP-62 NSCLC): > 100 µM
- GI50 (SF-539 CNS): < 0.005 µM
- TGI (SF-539 CNS): 0.0128 µM and < 0.0107 µM
- GI50 (NCI-H460 lung): < 0.005 µM
- TGI (NCI-H460 lung): > 100 µM
- GI50 (SW-620 colon): < 0.005 µM
- TGI (SW-620 colon): > 100 µM
- GI50 (NCI-H522 lung): < 0.005 µM
- TGI (NCI-H522 lung): 0.0122 µM and < 0.01 µM
- TGI (MALME-3M melanoma): > 100 µM
- GI50 (OVCAR-8 ovarian): 0.00764 µM and < 0.01 µM
- TGI (OVCAR-8 ovarian): > 50 µM
- GI50 (HCT-116 colon): < 0.01 µM
- TGI (HCT-116 colon): > 100 µM
- GI50 (HT29 colon): < 0.005 µM
- TGI (HT29 colon): 0.154 µM
- GI50 (U251 CNS): < 0.005 µM
- TGI (U251 CNS): > 100 µM
- GI50 (OVCAR-5 ovarian): < 0.005 µM
- TGI (OVCAR-5 ovarian): > 100 µM
- GI50 (COLO 205 colon): < 0.005 µM
- TGI (COLO 205 colon): < 0.005 µM
- GI50 (KM12 colon): < 0.005 µM
- TGI (KM12 colon): > 100 µM
- GI50 (K-562 leukemia): < 0.005 µM
- TGI (K-562 leukemia): > 100 µM
- GI50 (SNB-19 CNS): < 0.005 µM
- TGI (SNB-19 CNS): > 100 µM
- GI50 (MDA-MB-435): < 0.005 µM
- TGI (MDA-MB-435): < 0.005 µM
- GI50 (UACC-62 melanoma): < 0.005 µM
- TGI (UACC-62 melanoma): > 100 µM
- TGI (UACC-257 melanoma): > 100 µM
- GI50 (DU-145 prostate): < 0.005 µM
- TGI (DU-145 prostate): > 100 µM
- GI50 (UO-31 renal): 0.0419 µM
- TGI (UO-31 renal): > 100 µM
- GI50 (786-0 renal): 0.00646 µM and < 0.01 µM
- TGI (786-0 renal): > 100 µM
- GI50 (NCI-H226 lung): 0.0179 µM and < 0.0156 µM
- TGI (NCI-H226 lung): > 50 µM
- GI50 (A549 NSCLC): < 0.005 µM
- TGI (A549 NSCLC): > 100 µM
- GI50 (HL-60(TB) leukemia): < 0.005 µM
- TGI (HL-60(TB) leukemia): 0.00787 µM and < 0.01 µM
- GI50 (ACHN renal): 0.024 µM and 0.0202 µM
- TGI (ACHN renal): > 100 µM
- GI50 (NCI/ADR-RES ovarian): 0.169 µM and 0.118 µM
- TGI (NCI/ADR-RES ovarian): > 50 µM and 9.41 µM
- GI50 (HS 578T breast): 0.0101 µM and < 0.01 µM
- TGI (HS 578T breast): > 100 µM
- GI50 (NCI-H23 lung): < 0.005 µM
- TGI (NCI-H23 lung): > 50 µM
- GI50 (CAKI-1 renal): < 0.01 µM
- TGI (CAKI-1 renal): > 94.8 µM
- GI50 (SK-MEL-2 melanoma): < 0.005 µM
- TGI (SK-MEL-2 melanoma): > 100 µM
- GI50 (BT-549 breast): < 0.005 µM and 0.0141 µM
- TGI (BT-549 breast): 0.0507 µM and 0.0821 µM
- GI50 (MCF7 breast): < 0.005 µM
- TGI (MCF7 breast): > 100 µM
- GI50 (LOX IMVI melanoma): < 0.005 µM
- TGI (LOX IMVI melanoma): > 100 µM
- GI50 (SR leukemia): < 0.005 µM
- TGI (SR leukemia): > 100 µM

Structure (SMILES): C=C(CBr)CCCOCc1ccccc1
- TGI (OVCAR-3 ovarian): 37.6 µM
- TGI (MOLT-4 leukemia): > 100 µM
- TGI (SN12C renal): 57.3 µM
- TGI (EKVX NSCLC): 46.6 µM
- TGI (TK-10 renal): 36.3 µM
- TGI (SK-OV-3 ovarian): > 100 µM
- TGI (A498 renal): > 100 µM
- TGI (HOP-92 NSCLC): 49.8 µM
- TGI (M14 melanoma): 31.9 µM
- TGI (OVCAR-4 ovarian): 38.2 µM
- TGI (HCT-15 colon): 68.2 µM
- TGI (CCRF-CEM leukemia): > 100 µM
- TGI (RPMI-8226 leukemia): 64.7 µM
- TGI (SK-MEL-5 melanoma): 35.9 µM
- TGI (IGROV1 ovarian): 44.3 µM
- TGI (PC-3 prostate): 39.8 µM
- TGI (SF-295 CNS): > 100 µM
- TGI (SF-268 CNS): 32.5 µM
- TGI (HOP-62 NSCLC): 48.6 µM
- TGI (SF-539 CNS): 34.8 µM
- TGI (NCI-H460 lung): 35.3 µM
- TGI (SW-620 colon): > 100 µM
- TGI (NCI-H522 lung): 49.1 µM
- TGI (MALME-3M melanoma): 41.7 µM
- TGI (OVCAR-8 ovarian): 32.2 µM
- TGI (HCT-116 colon): > 100 µM
- TGI (HT29 colon): 39.2 µM
- TGI (SK-MEL-28 melanoma): > 100 µM
- TGI (U251 CNS): > 100 µM
- TGI (OVCAR-5 ovarian): 33.3 µM
- TGI (COLO 205 colon): 54 µM
- TGI (KM12 colon): 33.7 µM
- TGI (K-562 leukemia): > 100 µM
- TGI (SNB-19 CNS): > 100 µM
- TGI (MDA-MB-435): 88.2 µM
- TGI (T-47D breast): > 100 µM
- TGI (UACC-62 melanoma): 47.2 µM
- TGI (UACC-257 melanoma): > 100 µM
- TGI (DU-145 prostate): > 100 µM
- TGI (UO-31 renal): 26.8 µM
- TGI (786-0 renal): > 100 µM
- TGI (NCI-H226 lung): 41.5 µM
- TGI (A549 NSCLC): > 100 µM
- TGI (HL-60(TB) leukemia): 72.6 µM
- TGI (ACHN renal): 27.3 µM
- TGI (NCI/ADR-RES ovarian): 40 µM
- TGI (NCI-H23 lung): 30.9 µM
- TGI (CAKI-1 renal): 18.2 µM
- TGI (SK-MEL-2 melanoma): 38 µM
- TGI (BT-549 breast): 35.4 µM
- TGI (MCF7 breast): 77.1 µM
- TGI (LOX IMVI melanoma): 92.9 µM
- TGI (SR leukemia): 89.8 µM
